Patent US11940441B2, “Low shear microfluidic devices and methods of use and manufacturing thereof” (President and Fellows of Harvard College, priority 2013, dated 2024)

Tests used:
Type in all cases: cell-based, human
[1] = tested on: differentiated airway cells; assay: IL-13 induced asthma-like phenotype in the airway-on-a-chip
Source text: FIGS. 30A-30D show induction of asthma-like phenotype in the airway-on-a-chip for assessment of drug efficacy. […] FIG. 30B is a bar graph showing quantification of globet cell coverage based on the fluorescent images (representative images shown in FIG. 30A). FIG. 30C is a set of bar graphs showing secretion of G-CSF and GM-CSF by IL-13 stimulated cells, as compared to cells without IL-13 stimulation. FIG. 30D is a bar graph showing cilia beating frequency under indicated conditions. In FIGS. 30B-30D, the “airway” devices were also used to assess the drug efficacy of Tofacitinib, a JAK inhibitor, by treating the IL-13 stimulated cells with Tofacitinib, and measuring each phenotype as described above accordingly.
To develop asthma-like phenotype in the devices described herein, airway cells were differentiated in the devices, e.g., using the methods as described in Example 1 or 2, and then stimulated with IL-13 to induce asthma-like phenotype in the devices. IL-13 is a protein secreted by immune cells which is found in high quantities in lungs of asthmatics.
The “airway” devices were then used to assess the drug efficacy of Tofacitinib, a JAK inhibitor.

[2] = tested on: COPD epithelium-microvascular endothelium co-culture; assay: Inflammatory cytokine secretion from the microvascular channel of COPD co-culture devices (Multiplex Cytokine Detection System); conditions: budesonide 10 nM or PFI-2 500 nM, poly (I:C) 10 μg/ml 6 h
Source text: (§1) FIGS. 28A-28C show capability of determining drug efficacy on neutrophil capture and adhesion and inflammation suppression in a small airway mimicking device according to one or more embodiments described herein. (FIG. 28A) Representative immunofluorescence images showing adhesion of recruited neutrophils under three different conditions: (left) no drug; (middle) budesonide; (right) PFI-2. Neutrophils were stained with Hoechst immediately prior to experiment to allow visualization and quantification. (FIG. 28B) Bar graph showing percentage change in neutrophil adhesion to activated endothelium as imaged in FIG. 28A. (n=3 different donors per condition; 7-8 devices per condition from 4 independent experiments; 4-5 distinct fields per chip). (FIG. 28C) A set of bar graphs showing levels of different cytokine secretion modulated by the indicated drug or under no treatment. Cytokines measured include: neutrophil-attractant IL-8, GROα, and GM-CSF, monocyte-chemoattractant MCP-1, and acute inflammation associated cytokine IL-6. (n=3 donors per condition).
COPD epithelium-microvascular endothelium co-culture devices were established, e.g., as described in Example 1 or 2, and then were either treated with the corticosteroid drug budesonide (10 nM) or PFI-2 (a bromodomain-containing protein 4 (BRD4) inhibitor drug; 500 nM), or left untreated. The COPD epithelium was then stimulated with poly (I:C) 10 μg/ml via the “airway lumen” channel for 6 h and then examined for adhesion of recruited neutrophils. Neutrophils were stained with Hoechst immediately prior to experiment to allow visualization and quantification. Representative immunofluorescence images of the three conditions are illustrated in FIG. 28A.
To compare the ability of budesonide and PFI-2 in suppressing inflammatory cytokine secretion, secreted cytokines from the “microvascular” channel of the co-culture devices were also analyzed by Multiplex Cytokine Detection System prior to neutrophil recruitment assay.

[3] = tested on: neutrophil adhesion to activated endothelium; assay: Neutrophil capture and adhesion in COPD epithelium-microvascular endothelium co-culture device after poly (I:C); conditions: budesonide 10 nM or PFI-2 500 nM; poly (I:C) 10 μg/ml for 6 h; compared with no treatment
Source text: as §1, with “(FIG. 28C) A set of bar graphs showing levels of different cytokine secretion modulated by the indicated drug or under no treatment.” left out, “(n=3 donors per condition).” left out
COPD epithelium-microvascular endothelium co-culture devices were established, e.g., as described in Example 1 or 2, and then were either treated with the corticosteroid drug budesonide (10 nM) or PFI-2 (a bromodomain-containing protein 4 (BRD4) inhibitor drug; 500 nM), or left untreated. […] Neutrophils were stained with Hoechst immediately prior to experiment to allow visualization and quantification. […]
Effects of budesonide and PFI-2 on neutrophil adhesion were quantified.

[4] = tested on: COPD and healthy differentiated epithelial cells; assay: Cytokine response of differentiated COPD and healthy epithelia to TLR stimulation in the device; conditions: for M-CSF secretion: poly(I:C) stimulation; for IL8 secretion: LPS stimulation
Source text: FIGS. 26A-26E are data graphs showing COPD disease phenotype can be established in the device according to one or more embodiments described herein. […] FIG. 26B compares IL-8 secretion between COPD and healthy epithelia after LPS (lipopolysaccharides) stimulation. FIG. 26C compares M-CSF secretion between COPD and healthy epithelia after […] (polyinosinic:polycytidylic acid) stimulation.
It was next sought to determine cytokine production in response to TLR stimulation. Cytokines are molecules that are involved in inflammation and their generation can be modulated by TLR activation. After the well-differentiated (i.e. mucociliary) epithelium (normal and COPD-derived) was stimulated with lipopolysaccharides (LPS), a qPCR was performed on the cells to compare inflammatory response between COPD and healthy epithelia in the devices described herein. LPS is a bacterial derived molecule that stimulates TLR4. […] This is in line with clinical reports and other ex vivo observations that COPD patients are hyper-reactive inflammation-wise and produce more pro-inflammatory mediators. […] M-CSF is a cytokine that promotes survival and differentiations of a subset of immune cells, e.g., macrophages, in our bodies. This agrees with general observations that in the lungs of COPD patients there is generally an increased number of macrophages as compared to the number of macrophages in healthy individuals.

[5] = tested on: pulmonary microvascular endothelial cells; assay: Cell adhesion molecule gene expression in endothelial cells after apical poly (I:C) challenge of co-cultured epithelium; conditions: apical poly (I:C) 10 μg/ml for 6 h, compared to cells without challenge
Source text: FIGS. 27A-27C show establishment of a three-cell type microfluidic co-culture system comprising ciliated epithelium, endothelium and circulating leukocytes. (FIG. 27A) Left panel: a 3D cross-sectional diagram of one embodiment of the devices described herein used to re-create post-capillary venules (major sites of leukocyte recruitment and adhesion in vivo). Middle panel: a schematic diagram showing a 3-cell type co-culture of epithelium, endothelium and neutrophils (all primary cells). Right panel: vertical immunofluorescence cross-section of ciliated epithelium and endothelium bilayer on-device. Ciliated cells were labeled for β-tubulin IV and endothelial cells were stained with anti-CD31/PECAM-1 antibody. Nuclei were counterstained with DAPI. Scale bar, 20 μm. […] Following initial attachment the neutrophil crawled over apical surface of activated endothelium and then firmly adhered (times indicated in seconds). Neutrophils and endothelial cells had been live stained with CellTracker Red and Calcein AM, respectively. (FIG. 27C) Bar graphs showing E-selectin and VCAM1 mRNA levels in endothelia cells upon treatment of differentiated epithelial cells with or without poly (I:C). (3 devices per condition were used) […]

[6] = tested on: differentiated airway epithelial cells; assay: Infection response of differentiated airway epithelial cells to TLR-3 ligand poly I:C in the device
Protocol: FIGS. 11A-11D illustrate an exemplary method of evaluating an infection response of differentiated small airway epithelial cells and optionally immune cells in a device in accordance with an embodiment, and experimental data resulting therefrom. FIG. 11A is a schematic diagram illustrating an example method to evaluate an infection response in the device. Primary small airway epithelial cells were seeded on the membrane in the mesochannel (an “airway lumen” channel) for differentiation into ciliated and/or mucus-secreting cells following the differentiation method as described in FIG. 5A. Upon differentiation of the airway epithelial cells, another surface of the membrane (facing the microchannel, the “blood vessel” channel) could be seeded with or without endothelial cells. The differentiated cells in the mesochannel were then challenged with a toll-like receptor 3 (TLR-3) ligand poly I:C to induce inflammation. A fluid comprising immune cells (e.g., human monocytes) was introduced into the “blood vessel” channel, either with a static fluid or a flowing fluid, to determine effects of TLR-3-induced inflammation on cytokine/chemokine profiles of the differentiated cells and/or recruitment of immune cells (e.g., monocytes and/or neutrophils). […] FIG. 11C is a set of data showing quantification of monocytes attached to the TLR-3 activated differentiated epithelial cells in the device and the associated fluorescent images. FIG. 11D is a graph showing gene expression of differentiated epithelial cells after treatment with or without a TLR-3 ligand poly I:C.
By way of example only, FIGS. 11A-11D illustrate the capability of using one embodiment of the device described herein to model a bacterial/viral infection. […] Cytokines or chemokines secreted into the fluid flowing in the mesochannel and/or microchannel can be measured by collecting from the outlet an aliquot of the fluid exiting the mesochannel and/or microchannel, which is then subjected to cytokine/chemokine expression analyses.

[7] = drug treatment of IL-13 stimulated cultures
[8] = IL-13 stimulation compared to cells without IL-13 stimulation
[9] = healthy donor and COPD epithelial cells, poly (I:C) stimulation

## C[C@@H]1CCN(C(=O)CC#N)C[C@@H]1N(C)c1ncnc2[nH]ccc12 [Tofacitinib]
[1]; [7]
  G-CSF secretion: decrease GM-CSF and G-CSF secretion
  GM-CSF secretion: decrease GM-CSF and G-CSF secretion
  cilia beating frequency: increase cilia beating frequency
  number of goblet cells: decrease the number of goblet cells

## Cl.O=C([C@@H](Cc1cccc(C(F)(F)F)c1)NS(=O)(=O)c1cc(F)c2c(c1)CCNC2)N1CCCC1 [PFI-2]
[2]
  secretion of GM-CSF: significantly lowered
  secretion of GROα: significantly lowered
  secretion of IL-6: significantly lowered
  secretion of IL-8: significantly lowered
  secretion of MCP-1: significantly lowered
[3]
  neutrophil recruitment / adhesion to activated endothelium: significantly lowered

## IL-13: a protein secreted by immune cells which is found in high quantities in lungs of asthmatics
[1]; [8]
  cilia beating frequency: lower cilia beating frequency
  number of goblet cells: higher number of goblet cells
  secretion of G-CSF: higher secretion
  secretion of GM-CSF: higher secretion

## polyinosinic:polycytidylic acid [poly (I:C)]
[4]; COPD epithelial cells
  M-CSF secretion: selectively up-regulated
[4]; [9]
  expression of IP-10: induced in both healthy donor and COPD epithelial cells
  expression of RANTES: induced in both healthy donor and COPD epithelial cells
[4]; healthy epithelial cells
  M-CSF secretion: no significant change
[5]
  E-selectin gene expression in endothelial cells: significant up-regulation
  VCAM-1 transcript levels in endothelial cells: higher, but not statistically significant
[6]; TLR-3 activation of differentiated airway epithelial cells
  release of chemokines (monocyte and neutrophil chemoattractants): stimulates release of chemokines
[6]; TLR-3 stimulation
  monocyte adhesion to differentiated epithelial cells: enhances monocyte adhesion
[6]; differentiated epithelial cells with or without poly I:C
  epithelial cells' gene expression of IP-10: significantly increases

## lipopolysaccharides [LPS]
[4]; COPD epithelial cells
  IL8 secretion: selectively induced
[4]; healthy epithelial cells
  IL8 secretion: without increasing
